One assay addresses T1, sGC α1/β1 heterodimer (Homo sapiens, UniProt Q02108+Q02153).
T1 construct: expressed in transfected cells; host or cells: CHO-K1 (clone #7, CHO-K1/sGC)
T1 sequence (Q02108 1-690): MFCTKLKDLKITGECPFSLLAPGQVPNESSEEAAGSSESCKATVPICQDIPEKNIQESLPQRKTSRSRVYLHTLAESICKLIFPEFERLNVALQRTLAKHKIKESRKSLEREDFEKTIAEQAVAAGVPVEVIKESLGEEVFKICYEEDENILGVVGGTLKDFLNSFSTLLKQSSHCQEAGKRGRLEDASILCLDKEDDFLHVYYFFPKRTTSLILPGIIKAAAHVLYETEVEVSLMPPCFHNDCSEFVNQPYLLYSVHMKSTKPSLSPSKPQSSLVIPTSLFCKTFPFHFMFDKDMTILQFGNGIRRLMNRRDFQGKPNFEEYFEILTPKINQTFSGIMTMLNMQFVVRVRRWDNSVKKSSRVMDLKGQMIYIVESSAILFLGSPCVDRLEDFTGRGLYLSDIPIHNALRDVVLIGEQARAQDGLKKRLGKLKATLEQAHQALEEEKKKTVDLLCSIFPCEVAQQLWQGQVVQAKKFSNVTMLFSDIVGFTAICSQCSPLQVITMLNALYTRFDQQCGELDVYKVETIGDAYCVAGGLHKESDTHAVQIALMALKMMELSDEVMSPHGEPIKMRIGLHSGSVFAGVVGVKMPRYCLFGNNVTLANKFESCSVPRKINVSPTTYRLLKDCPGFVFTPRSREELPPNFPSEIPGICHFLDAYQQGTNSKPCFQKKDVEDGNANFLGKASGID
T1 sequence (Q02153 1-619): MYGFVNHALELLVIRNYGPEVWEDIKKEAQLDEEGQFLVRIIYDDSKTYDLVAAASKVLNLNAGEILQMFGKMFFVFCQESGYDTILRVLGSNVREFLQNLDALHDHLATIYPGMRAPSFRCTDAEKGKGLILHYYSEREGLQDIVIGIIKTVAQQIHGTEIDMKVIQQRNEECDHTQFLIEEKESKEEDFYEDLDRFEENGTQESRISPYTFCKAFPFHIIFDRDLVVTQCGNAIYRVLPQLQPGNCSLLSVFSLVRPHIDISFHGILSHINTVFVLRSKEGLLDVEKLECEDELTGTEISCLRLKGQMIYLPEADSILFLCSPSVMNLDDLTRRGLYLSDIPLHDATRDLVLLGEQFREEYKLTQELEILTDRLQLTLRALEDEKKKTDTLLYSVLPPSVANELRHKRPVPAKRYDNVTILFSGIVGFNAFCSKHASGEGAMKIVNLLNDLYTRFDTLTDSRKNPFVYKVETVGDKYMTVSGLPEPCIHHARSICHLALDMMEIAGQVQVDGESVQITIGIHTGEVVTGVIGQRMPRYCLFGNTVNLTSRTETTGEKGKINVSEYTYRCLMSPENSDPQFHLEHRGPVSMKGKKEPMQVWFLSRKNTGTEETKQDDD
The experiment in a line: Cell-based sGC functional assay (CASA assay): cGMP generation in CHO-K1/sGC cells, HTRF detection. The following applies: for Emax: CHO-K1, percent activation relative to standard Compound A in CHO-K1/sGC cells, read-out: % Act.; for EC50: inflection point (IP) of cGMP generation in CHO-K1/sGC cells, 4P fit, activity expressed as percentage of Compound A. In short, it runs like this: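 cGMP was quantified by HTRF after 1 hr, 37° C exposure of thawed CHO-K1 cells expressing sGC α1/β1 to compound, with or without 1 μM DETA-NO. IBMX (0.5 mM) blocked cGMP breakdown, and DMSO was 2.5% final. Percent of standard Compound A's maximal cGMP was fitted (4P) for inflection point.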

For assay [1], the system named is Spontaneously hypertensive rats (SHR). The experiment in a line: Acute efficacy in spontaneously hypertensive rats (SHR): telemetry blood pressure lowering after a single oral dose. Type of assay: in vivo, rat. A digest of the protocol: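 Values are the maximum peak fall in systolic pressure after one oral dose (mpk), computed hourly against baseline from a vehicle dose given the day before. Rats were conscious, male, spontaneously hypertensive, with femoral-aortic telemetry recording 30 s every 10 min, 14 days post-surgery.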

Each structure is given as a SMILES string.

As for `Nc1nc(-c2cn3ccnc3c(CCCC(F)(F)F)n2)nc2c1C(c1ccccn1)(C1CC1)C(=O)N2` (stereo not drawn) [Example 383B, 4-Amino-5-cyclopropyl-5-(pyridin-2-yl)-2-(8-(4,4,4-trifluorobutyl)imidazo[1,2-a]pyrazin-6-yl)-5H-pyrrolo[2,3-d]pyrimidin-6(7H)-one], on sGC α1/β1 heterodimer, the Emax is 137% and the EC50 is 98 nM. Further, in assay [1] (P.O. 1.0 mpk), the “Maximum peak decrease of systolic blood pressure (SBP) in SHR, Cat.” value (“Maximum peak decrease” for short) was “B (Category B=SBP in SHRs 20-40 mmHg)”.

For the compound `CCCCc1nc(-c2nc(N)c3c(n2)NC(=O)C3(c2ncc(Cl)cn2)C2CC2)cn2ccnc12` (stereo not drawn) [Example 372A, 4-amino-2-(8-butylimidazo[1,2-a]pyrazin-6-yl)-5-(5-chloropyrimidin-2-yl)-5-cyclopropyl-5H-pyrrolo[2,3-d]pyrimidin-6(7H)-one], on sGC α1/β1 heterodimer, the Emax stood at 187% and the response was half-maximal at 239 nM (EC50). Besides, the “Maximum peak decrease” value in assay [1] (P.O. 1.0 mpk) is on record as “C (Category C=SBP in SHRs>40 mmHg)”.

`COc1cn2cc(-c3nc(N)c4c(n3)NC(=O)C4(C)c3ccc(F)cc3)nc(CCC(F)(F)C(F)(F)F)c2n1` (stereo not drawn) [Example 174A, 4-amino-5-(4-fluorophenyl)-2-(2-methoxy-8-(3,3,4,4,4-pentafluorobutyl)imidazo [1,2-a]pyrazin-6-yl)-5-methyl-5H-pyrrolo[2,3-d]pyrimidin-6(7H)-one]: at sGC α1/β1 heterodimer, the Emax amounted to 139% and a half-maximal effect (EC50) was put at 107 nM. In assay [1] (P.O. 1.0 mpk), the “Maximum peak decrease” value was “B (Category B=SBP in SHRs 20-40 mmHg)”.

As for `CCOc1ccc(C2(C)C(=O)Nc3nc(-c4cn5ccnc5c(CCCC(F)(F)F)n4)nc(N)c32)nc1` (stereo not drawn) [Example 216A, 4-amino-5-(5-ethoxypyridin-2-yl)-5-methyl-2-(8-(4,4,4-trifluorobutyl)imidazo[1,2-a]pyrazin-6-yl)-5H-pyrrolo[2,3-d]pyrimidin-6(7H)-one], at sGC α1/β1 heterodimer, the Emax was determined as 77% and the EC50 is 146 nM. Moreover, in assay [1] (P.O. 1.0 mpk), the “Maximum peak decrease” value was “B (Category B=SBP in SHRs 20-40 mmHg)”.

Take `CC1(c2ccc(Cl)cc2)C(=O)Nc2nc(-c3cn4ccnc4c(CC4CCC4)n3)nc(N)c21` (stereo not drawn) [Example 118A, 4-amino-5-(4-chlorophenyl)-2-(8-(cyclobutylmethyl)imidazo [1,2-a]pyrazin-6-yl)-5-methyl-5H-pyrrolo[2,3-d]pyrimidin-6(7H)-one]: on sGC α1/β1 heterodimer, the Emax stood at 76% and the EC50 is 33 nM. Moreover, the “Maximum peak decrease” value in assay [1] (P.O. 0.3 mpk) is “C (Category C=SBP in SHRs>40 mmHg)”.

For `CC1(c2noc(C3CC3)n2)C(=O)Nc2nc(-c3cn4ccnc4c(CCC(F)(F)C(F)(F)F)n3)nc(N)c21` (single isomer, unassigned) [Example 333B, 4-amino-5-(5-cyclopropyl-1,2,4-oxadiazol-3-yl)-5-methyl-2-(8-(3,3,4,4,4-pentafluorobutyl)imidazo[1,2-a]pyrazin-6-yl)-5H-pyrrolo[2,3-d]pyrimidin-6(7H)-one], on sGC α1/β1 heterodimer, the Emax turned out to be 81% and the EC50 amounted to 84 nM. Further, in assay [1] (P.O. 2.0 mpk), the “Maximum peak decrease” value is given as “B (Category B=SBP in SHRs 20-40 mmHg)”.

For `Nc1nc(-c2cn3ccnc3c(CCC(F)(F)F)n2)nc2c1C(c1ccc(OC(F)(F)F)cc1)(C1CC1)C(=O)N2` (stereo not drawn) [Example 328A, 4-amino-5-cyclopropyl-5-(4-(trifluoromethoxy)phenyl)-2-(8-(3,3,3-trifluoropropyl)imidazo[1,2-a]pyrazin-6-yl)-5H-pyrrolo[2,3-d]pyrimidin-6(7H)-one], at sGC α1/β1 heterodimer, the Emax turned out to be 106% and it took 1040 nM to reach a half-maximal effect (EC50). The “Maximum peak decrease” value in assay [1] (P.O. 3.0 mpk) is “A (Category A=SBP in SHRs<20 mmHg)”.

For the compound `Nc1nc(-c2cn3ccnc3c(CCCC(F)(F)F)n2)nc2c1C(c1ccc(Cl)cc1F)(C1CC1)C(=O)N2` (stereo not drawn) [Example 339A, 4-amino-5-(4-chloro-2-fluorophenyl)-5-cyclopropyl-2-(8-(4,4,4-trifluorobutyl)imidazo[1,2-a]pyrazin-6-yl)-5H-pyrrolo[2,3-d]pyrimidin-6(7H)-one], at sGC α1/β1 heterodimer, the Emax came out at 325% and a half-maximal response (EC50) required 122 nM. For the same compound, the “Maximum peak decrease” value in assay [1] (P.O. 0.3 mpk) was “B (Category B=SBP in SHRs 20-40 mmHg)”.

For the compound `Nc1nc(-c2cn3ccnc3c(CCCC(F)(F)F)n2)nc2c1C(c1ccc(F)cc1)(C1CC1)C(=O)N2` (stereo not drawn) [Example 205B, 4-amino-5-cyclopropyl-5-(4-fluorophenyl)-2-(8-(4,4,4-trifluorobutyl)imidazo[1,2-a]pyrazin-6-yl)-5H-pyrrolo[2,3-d]pyrimidin-6(7H)-one], on sGC α1/β1 heterodimer, the Emax is 127% and it took 20 nM to reach a half-maximal effect (EC50). In assay [1] (P.O. 0.3 mpk), the “Maximum peak decrease” value is given as “C (Category C=SBP in SHRs>40 mmHg)”.

As for `CCc1nc(-c2nc(N)c3c(n2)NC(=O)C3(C)c2ccc(Cl)c(F)c2)cn2ccnc12` (stereo not drawn) [Example 314B, 4-amino-5-(4-chloro-3-fluorophenyl)-2-(8-ethylimidazo[1,2-a]pyrazin-6-yl)-5-methyl-5H-pyrrolo[2,3-d]pyrimidin-6(7H)-one], on sGC α1/β1 heterodimer, the Emax stood at 104% and the EC50 stood at 434 nM. In addition, the “Maximum peak decrease” value in assay [1] (P.O. 3.0 mpk) is “B (Category B=SBP in SHRs 20-40 mmHg)”.

Turning to `CC1(c2ccc(Cl)cc2)C(=O)Nc2nc(-c3cn4ccnc4c(CCC(F)(F)C(F)(F)F)n3)nc(N)c21` (stereo not drawn) [Example 238A, 4-amino-5-(4-chlorophenyl)-5-methyl-2-(8-(3,3,4,4,4-pentafluorobutyl)imidazo [1,2-a]pyrazin-6-yl)-5H-pyrrolo[2,3-d]pyrimidin-6(7H)-one], at sGC α1/β1 heterodimer, the Emax worked out at 131% and the response was half-maximal at 71 nM (EC50). Moreover, the “Maximum peak decrease” value in assay [1] (P.O. 0.3 mpk) is reported as “C (Category C=SBP in SHRs>40 mmHg)”.

With `CCCCc1nc(-c2nc(N)c3c(n2)NC(=O)C3(C)c2ccc(F)cc2)cn2ccnc12` (stereo not drawn) [Example 8A, 4-amino-2-(8-butylimidazo[1,2-a]pyrazin-6-yl)-5-(4-fluorophenyl)-5-methyl-5H-pyrrolo[2,3-d]pyrimidin-6(7H)-one], at sGC α1/β1 heterodimer, the Emax turned out to be 137% and it took 45 nM to reach a half-maximal effect (EC50). Also, the “Maximum peak decrease” value in assay [1] (P.O. 0.3 mpk) is “C (Category C=SBP in SHRs>40 mmHg)”.

Consider `CC1(c2ccc(C3CC3)nn2)C(=O)Nc2nc(-c3cn4ccnc4c(CCC(F)(F)C(F)(F)F)n3)nc(N)c21` (stereo not drawn) [Example 253B, 4-amino-5-(6-cyclopropylpyridazin-3-yl)-5-methyl-2-(8-(3,3,4,4,4-pentafluorobutyl)imidazo [1,2-a]pyrazin-6-yl)-5H-pyrrolo[2,3-d]pyrimidin-6(7H)-one], for which, at sGC α1/β1 heterodimer, the Emax was 83% and the midpoint of the response, the EC50, lay at 51 nM. In assay [1] (P.O. 1.0 mpk), the “Maximum peak decrease” value is on record as “A (Category A=SBP in SHRs<20 mmHg)”.

Turning to `CCCc1nc(-c2nc(N)c3c(n2)NC(=O)C3(C)c2ccc(Cl)cn2)cn2ccnc12` (stereo not drawn) [Example 129A, 4-amino-5-(5-chloropyridin-2-yl)-5-methyl-2-(8-propylimidazo[1,2-a]pyrazin-6-yl)-5H-pyrrolo[2,3-d]pyrimidin-6(7H)-one], on sGC α1/β1 heterodimer, the Emax is 94% and a half-maximal effect (EC50) was put at 107 nM. Besides, the “Maximum peak decrease” value in assay [1] (P.O. 1.0 mpk) is “B (Category B=SBP in SHRs 20-40 mmHg)”.

`CC1(c2ccc(Cl)cn2)C(=O)Nc2nc(-c3cn4ccnc4c(CCC(F)(F)F)n3)nc(N)c21` (stereo not drawn) [Example 201A, 4-amino-5-(5-chloropyridin-2-yl)-5-methyl-2-(8-(3,3,3-trifluoropropyl)imidazo[1,2-a]pyrazin-6-yl)-5H-pyrrolo[2,3-d]pyrimidin-6(7H)-one]: on sGC α1/β1 heterodimer, the Emax is 140% and the EC50 worked out at 928 nM. Also, in assay [1] (P.O. 3.0 mpk), the “Maximum peak decrease” value is “C (Category C=SBP in SHRs>40 mmHg)”.

For orientation: EC50 means the concentration needed to bring the measured effect to its halfway point. Read a low EC50 as an effect from little substance.

(Values after patent publication US9796733B2, “Imidazo-pyrazine derivatives useful as soluble guanylate cyclase activators” (Merck Sharp & Dohme Corp., priority 2014, dated 2017).)
